Our source for the EC50 values is article PMC10692101, “3-(4-Hydroxy-3-methoxyphenyl) propionic acid contributes to improved hepatic lipid metabolism via GPR41” (Scientific Reports, 2023).

Assay [1] deals with T1, GPR41 (Mus musculus, UniProt Q3UFD7).
T1 construct: gene Ffar3; mouse GPR41 cDNA in pcDNA5/FRT/TO, expressed in Flp-In T-Rex HEK 293 cells
T1 sequence (Q3UFD7 1-319): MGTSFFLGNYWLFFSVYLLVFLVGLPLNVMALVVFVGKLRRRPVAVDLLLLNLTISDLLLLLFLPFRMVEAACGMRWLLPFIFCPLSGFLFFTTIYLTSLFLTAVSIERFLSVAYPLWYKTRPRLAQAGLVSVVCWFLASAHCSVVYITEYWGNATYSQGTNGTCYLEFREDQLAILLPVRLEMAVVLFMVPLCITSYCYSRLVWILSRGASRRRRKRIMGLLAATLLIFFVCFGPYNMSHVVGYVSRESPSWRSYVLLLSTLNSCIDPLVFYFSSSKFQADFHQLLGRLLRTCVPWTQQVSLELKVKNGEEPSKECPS
The assay can be described thus: inhibition of forskolin-induced cAMP in doxycycline-inducible mouse GPR41 HEK293 cells. Type of assay: cell-based.

Assay [2] addresses T1, GPR41. The assay is described as follows: inhibition of forskolin-induced cAMP in doxycycline-inducible mouse GPR41 HEK293 cells; Dox(-) controls inactive. It is filed as cell-based.

A word on the EC50: it is the concentration needed to bring the measured effect to its halfway point. Higher therefore signals a less potent agent.

For the compound `COc1cc(/C=C/C(=O)O)ccc1O` [HMCA, 4-hydroxy-3-methoxycinnamic acid], the concentration for a half-maximal effect (EC50) on GPR41 [1] came to 5.58 mM.

As for `COc1cc(CCC(=O)O)ccc1O` [HMPA, 3-(4-hydroxy-3-methoxyphenyl) propionic acid], it took 2.36 mM to reach a half-maximal effect at GPR41 [2] (EC50).
